# Data from patent US20210085640A1, “ACYLATED CATECHIN POLYPHENOLS AND METHODS OF THEIR USE FOR THE TREATMENT OF CANCER” (Flagship Pioneering Innovations V, Inc., priority 2018, published 2021).
# Experiments:
# Format in all cases: cell-based
# T24 bladder cancer cells = experiment: Cancer cell survival (CellTiter-Glo), T24; conditions: Homo sapiens
# Procedure, shortened: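 T24 cells seeded at 4×10^3 cells/well overnight, then exposed 72 h at 37 C, 5% CO2 to nine concentrations in triplicate. Survival measured by CellTiter-Glo luminescence relative to untreated and medium controls; IC50 derived.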
# [1] = tested on: Daudi lymphoma cancer cells; experiment: Cancer cell survival (CellTiter-Glo), Daudi; conditions: Homo sapiens, 72 h
# Procedure, shortened: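 Daudi cells (4×10^3/well) were exposed for 72 h at 37 °C to nine concentrations of compound, added as 10× solutions spanning 1 μM–10 mM (fatty acids) or 100 nM–1 mM (others). CellTiter-Glo luminescence gave % survival versus untreated, medium-blank corrected; IC50 derived.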
# MCF7 breast cancer cells = experiment: Cancer cell survival (CellTiter-Glo), MCF7; conditions: Homo sapiens, 72 h
# Procedure, shortened: (§1)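 Log-phase cells are plated at 4×10^3 per well and incubated overnight. Compounds, prepared in media as 10× solutions, are then added and the plates held 72 h at 37 C. Viability is measured by CellTiter-Glo luminescence, and IC50 is derived from survival relative to untreated controls.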
# [2] = tested on: HCT 116 colorectal cancer cells; experiment: Cancer cell survival (CellTiter-Glo), HCT 116; conditions: Homo sapiens, HCT 116 cells, 72 h
# Procedure, shortened: as §1
# A549 lung cancer cells = experiment: Cancer cell survival (CellTiter-Glo), A549; conditions: Homo sapiens, 72 h
# Procedure, shortened: as §1
# [3] = tested on: PC-3 prostate cancer cells; experiment: Cancer cell survival (CellTiter-Glo), PC-3; conditions: Homo sapiens, PC-3 cells, 72 h
# Procedure, shortened: as §1
# A-431 skin cancer cells = experiment: Cancer cell survival (CellTiter-Glo), A-431; conditions: Homo sapiens, A-431 cells, 72 h
# Procedure, shortened: as §1
# AGS stomach cancer cells = experiment: Cancer cell survival (CellTiter-Glo), AGS; conditions: 72 h
# Procedure, shortened: as §1
# [4] = 317 μM, read-out: Cell survival at given concentration
# [5] = 1 mM, read-out: Cell survival at given concentration
# [6] = 3 mM, read-out: Cell survival at given concentration
# [7] = 10 mM, read-out: Cell survival at given concentration
compound,measurement,setting,value
CCC(=O)O [propionate],viability at 1 µM,"T24 bladder cancer cells; T-24, 1 μM, 72 h, Table 3.2, read-out: Cell survival at given concentration",99%
same,viability at 3 µM,"T24 bladder cancer cells; T-24, 3 μM, 72 h, Table 3.2, read-out: Cell survival at given concentration",97%
same,viability at 10 µM,"T24 bladder cancer cells; T-24, 10 μM, 72 h, Table 3.2, read-out: Cell survival at given concentration",97%
same,viability at 32 µM,"T24 bladder cancer cells; T-24, 32 μM, 72 h, Table 3.2, read-out: Cell survival at given concentration",99%
same,viability at 100 µM,"T24 bladder cancer cells; T-24, 100 μM, 72 h, Table 3.2, read-out: Cell survival at given concentration",97%
same,viability at 317 µM,"T24 bladder cancer cells; T-24, 317 μM, 72 h, read-out: Cell survival at given concentration",98%
same,viability at 1000 µM,"T24 bladder cancer cells; T-24, 1 mM, 72 h, read-out: Cell survival at given concentration",89%
same,viability at 3000 µM,"T24 bladder cancer cells; T-24, 3 mM, 72 h, read-out: Cell survival at given concentration",83%
same,viability at 10000 µM,"T24 bladder cancer cells; T-24, 10 mM, 72 h, read-out: Cell survival at given concentration",60%
same,IC50,"T24 bladder cancer cells; T-24, 72 h, Table 3.2, read-out: IC50",> 10 mM
same,viability at 1 µM,"[1]; 1 μM, Table 4.2, read-out: Cell survival at given concentration",97%
same,viability at 3 µM,"[1]; 3 μM, Table 4.2, read-out: Cell survival at given concentration",97%
same,viability at 10 µM,"[1]; 10 μM, Table 4.2, read-out: Cell survival at given concentration",99%
same,viability at 32 µM,"[1]; 32 μM, Table 4.2, read-out: Cell survival at given concentration",99%
same,viability at 100 µM,"[1]; 100 μM, Table 4.2, read-out: Cell survival at given concentration",101%
same,viability at 317 µM,[1]; [4],97%
same,viability at 1000 µM,[1]; [5],75%
same,viability at 3000 µM,[1]; [6],47%
same,viability at 10000 µM,[1]; [7],18%
same,IC50,[1]; Table 4.2,2.73 mM
same,viability at 1 µM,"MCF7 breast cancer cells; 1 μM, Table 5.2, read-out: Cell survival at given concentration",99%
same,viability at 3 µM,"MCF7 breast cancer cells; 3 μM, Table 5.2, read-out: Cell survival at given concentration",97%
same,viability at 10 µM,"MCF7 breast cancer cells; 10 μM, Table 5.2, read-out: Cell survival at given concentration",103%
same,viability at 32 µM,"MCF7 breast cancer cells; 32 μM, Table 5.2, read-out: Cell survival at given concentration",102%
same,viability at 100 µM,"MCF7 breast cancer cells; 100 μM, Table 5.2, read-out: Cell survival at given concentration",102%
same,viability at 317 µM,MCF7 breast cancer cells; [4],94%
same,viability at 1000 µM,MCF7 breast cancer cells; [5],91%
same,viability at 3000 µM,MCF7 breast cancer cells; [6],77%
same,viability at 10000 µM,MCF7 breast cancer cells; [7],51%
same,IC50,MCF7 breast cancer cells; Table 5.2,> 10 mM
same,viability at 1 µM,"[2]; 1 μM, Table 6.2, read-out: Cell survival at given concentration",98%
same,viability at 3 µM,"[2]; 3 μM, Table 6.2, read-out: Cell survival at given concentration",102%
same,viability at 10 µM,"[2]; 10 μM, Table 6.2, read-out: Cell survival at given concentration",103%
same,viability at 32 µM,"[2]; 32 μM, Table 6.2, read-out: Cell survival at given concentration",103%
same,viability at 100 µM,"[2]; 100 μM, Table 6.2, read-out: Cell survival at given concentration",106%
same,viability at 317 µM,[2]; [4],103%
same,viability at 1000 µM,[2]; [5],98%
same,viability at 3000 µM,[2]; [6],66%
same,viability at 10000 µM,[2]; [7],19%
same,IC50,[2]; Table 6.2,4.38 mM
same,viability at 1 µM,"A549 lung cancer cells; 1 μM, Table 7.2, read-out: Cell survival at given concentration",98%
same,viability at 3 µM,"A549 lung cancer cells; 3 μM, Table 7.2, read-out: Cell survival at given concentration",98%
same,viability at 10 µM,"A549 lung cancer cells; 10 μM, Table 7.2, read-out: Cell survival at given concentration",102%
same,viability at 32 µM,"A549 lung cancer cells; 32 μM, Table 7.2, read-out: Cell survival at given concentration",103%
same,viability at 100 µM,"A549 lung cancer cells; 100 μM, Table 7.2, read-out: Cell survival at given concentration",101%
same,viability at 317 µM,A549 lung cancer cells; [4],104%
same,viability at 1000 µM,A549 lung cancer cells; [5],104%
same,viability at 3000 µM,A549 lung cancer cells; [6],94%
same,viability at 10000 µM,A549 lung cancer cells; [7],65%
same,viability at 1 µM,"[3]; 1 μM, Table 8.2, read-out: Cell survival at given concentration",100%
same,viability at 3 µM,"[3]; 3 μM, Table 8.2, read-out: Cell survival at given concentration",98%
same,viability at 10 µM,"[3]; 10 μM, Table 8.2, read-out: Cell survival at given concentration",98%
same,viability at 32 µM,"[3]; 32 μM, Table 8.2, read-out: Cell survival at given concentration",101%
same,viability at 100 µM,"[3]; 100 μM, Table 8.2, read-out: Cell survival at given concentration",104%
same,viability at 317 µM,[3]; [4],98%
same,viability at 1000 µM,[3]; [5],94%
same,viability at 3000 µM,[3]; [6],84%
same,viability at 10000 µM,[3]; [7],66%
same,IC50,[3]; Table 8.2,> 10 mM
same,viability at 1 µM,"A-431 skin cancer cells; 1 μM, Table 9.2, read-out: Cell survival at given concentration",99%
same,viability at 3 µM,"A-431 skin cancer cells; 3 μM, Table 9.2, read-out: Cell survival at given concentration",101%
same,viability at 10 µM,"A-431 skin cancer cells; 10 μM, Table 9.2, read-out: Cell survival at given concentration",103%
same,viability at 32 µM,"A-431 skin cancer cells; 32 μM, Table 9.2, read-out: Cell survival at given concentration",102%
same,viability at 100 µM,"A-431 skin cancer cells; 100 μM, Table 9.2, read-out: Cell survival at given concentration",104%
same,viability at 317 µM,A-431 skin cancer cells; [4],99%
same,viability at 1000 µM,A-431 skin cancer cells; [5],98%
same,viability at 3000 µM,A-431 skin cancer cells; [6],89%
same,viability at 10000 µM,A-431 skin cancer cells; [7],70%
same,IC50,A-431 skin cancer cells; Table 9.2,> 10 mM
same,viability at 1 µM,"AGS stomach cancer cells; 1 μM, Table 10.2, read-out: Cell survival at given concentration",102%
same,viability at 3 µM,"AGS stomach cancer cells; 3 μM, Table 10.2, read-out: Cell survival at given concentration",98%
same,viability at 10 µM,"AGS stomach cancer cells; 10 μM, Table 10.2, read-out: Cell survival at given concentration",103%
same,viability at 32 µM,"AGS stomach cancer cells; 32 μM, Table 10.2, read-out: Cell survival at given concentration",101%
same,viability at 100 µM,"AGS stomach cancer cells; 100 μM, Table 10.2, read-out: Cell survival at given concentration",104%
same,viability at 317 µM,AGS stomach cancer cells; [4],101%
same,viability at 1000 µM,AGS stomach cancer cells; [5],103%
same,viability at 3000 µM,AGS stomach cancer cells; [6],96%
same,viability at 10000 µM,AGS stomach cancer cells; [7],70%
